One data set concerns gp-170 Protein. Put plainly: Rhodamine-123 efflux pump inhibition assay (cell sorter fluorescence FL1). Type of data set: cell-based, Maus. To be noted: for 100%-ige Hemmungsbereich (concentration range giving 100% inhibition of the efflux pump): considerable variation between repeats. As for the experimental part:
0,5 ml 2x10^6 /ml L-5178Y parental und Mdr Mauslymphomazellen wurden 10 Min. lang mit 40,0 200,0 und 1000 ng ALIS-409 inkubiert. Danach wurden die Zellen mit Rhodamin-123 Indikatorfarbstoff (Endkonzentration: 5,2 µMol) bei 37C° für 20 Min. inkubiert. Die Zellen wurden mit PBS gewaschen und die Fluoreszenz-Intensität (FL1) mittels Cellsorter gemessen. Die Intensität der unbehandelten parentalen Zellen entsprach der 100%igen Hemmung.
(§1) Die Intensität der unbehandelten Mdr-Zellen entsprach der 100%-igen Effluxpumpemktivität. Bei mehrfach wiederholten unabhängigen Versuchen in Deutschland und in Ungam wurde eine Inhibition der Effluxpumpen bereits bei 40,0 ng/ml Konzentration zwischen 20-45% gefunden und bei etwa 200,0 ng/ml Konzentration eine 80%-ige Hemmung erreicht. Der 100%-ige Hemmungsbereich liegt etwa zwischen 300-800 ng/ml. Es gab zwar eine erhebliche Schwankung bei der Wiederholung, jedoch fiel immer die 100%-ige Hemmung in den Nanogramm Bereich. Bei der Überprüfung von Mdr-Gen-Expression mittels PCR wurde kein Einfluss dieser ALIS-Verbindung auf die Reduktion oder Verstärkung der Mdr RNA Synthese gefunden. Das ist deshalb günstig, weil die Mdr auch eine wichtige physiologische Rolle bei den Entgiflungsmechanismen der gesunden Zellen (z.B. Nierenzellen) spielt und nach der Beendigung der Therapie das aktive gp-170 Protein wieder produziert werden kann. Außerdem wirkt ALIS-409 auch allein cancerostatisch - und zwar gegenüber gp-170 positiv (EPG85-257RDB) Magencarcinomazellen in vitro. Es wurde die folgende Proliferationshemmung nachgewiesen: 41% bei 100 ng/ml und 74% bei 300 ng/ml.
Die methodische Überprüfung war mit dem Beispiel 3 identisch. Auch die Inhibition der Effluxpumpenaktivitäten waren ähnlich groß. Im Konzentrationsbereich 200-500 ng/ml konnte eine 100%-ige Inhibition erreicht werden. […] Die schnelle Hemmung nach einer 10-minütigen Inkubatioszeit weist auf eine direkte Interaktion zwischen der Substanz und dem gp-170 Protein hin.

The subject of a further data set is Mdr RNA Synthese. Briefly: PCR check of Mdr gene expression. It counts as cell-based. As to the method: as §1
Die methodische Überprüfung war mit dem Beispiel 3 identisch. Auch die Inhibition der Effluxpumpenaktivitäten waren ähnlich groß. Im Konzentrationsbereich 200-500 ng/ml konnte eine 100%-ige Inhibition erreicht werden. […]

Data set [1] has as its system gp-170 positiv (EPG85-257RDB) Magencarcinomazellen. Briefly: In vitro proliferation inhibition (compound alone). Type of data set: cell-based. As for the experimental part: as §1
Data set [2] is described as follows: In vivo toxicity test in mice. More on the design: species or system Mäuse. To be noted: for survival: mouse, in vivo, 10 mg/kg, 10,0 mg/kg, read-out: Überleben der Mäuse. The text has this: Der Erfindung liegt die Aufgabe zugrunde, Verbindungen zur Verfügung zu stellen, mit denen sich die Wirksamkeit von Zytostatika verbessern lässt. Die Aufgabe wurde erfindungsgemäß durch die Bereitstellung von neuen organischen Siliciumverbindungen der Formel I gelöst. Die erfindungsgemäßen neuen substituierten Disiloxane der allgemeinen Formel I [drawing 2] enthalten folgenden Substituenten: • R^1 = Methyl, Ethyl, Phenyl oder tertiär Butyl • R^2 = X (Halogen: Cl, Br, F), CX3, (para, ortho, meta), • n = 0-1, m = 1-3 • Q = Alkyl, Cycloalkyl, sekundäres Amin, Morpholin, substituiertes Piperazin, worin [drawing 3] • R^3 = Methyl, Ethyl, Butyl, Phenyl, Benzyl, -(CH2)pSi(R^4)3 mit p = 1 - 3 und R^4 = Methyl, Ethyl bedeuten. Die erfindungsgemäß bereitgestellten Verbindungen werden durch Umsetzung von substituierten Alkyl-dichlor-silanen mit Aryl-Grignard-Verbindungen gewonnen und daraus durch acide Hydrolyse Disiloxane, die ihrerseits im Fall von Halogen-Alkylen mit Aminen umgesetzt werden. In speziellen Fällen wird Magnesium mit 4-Fluor-brombenzol umgesetzt und daraus durch Reaktion mit 3-Chlorpropyl-methyl-dichlorsilan das Zwischenprodukt 1,3-bis(4-fluorophenyl)-1,3-dimethyl-1,3-bis(3-chloropropyl)-disiloxan gewonnen. Dieses Produkt wird seinerseits mit Morpholin zu ALIS 409 oder mit 4-Butyl-piperazin zu ALIS 421 (Beispiele 2 und 3) umgesetzt. Überraschendweise hat sich herausgestellt, dass es sich bei den erfindungsgemäßen neuen substituierten Disiloxane um biologisch wirksame, nicht toxische Verbindungen handelt, die zur Umkehrung der Multidrogeresistenz (Mdr) der malignen Tumorzellen und pathogenen Erreger fähig sind und die Effluxpumpenaktivität der malignen Mdr-Tumorzellen und die Pgp-Resistenz von parasitären Zellen, Pilzen sowie von Bakterien bereits im ng/ml-Konzentrationsbereich stark inhibieren. Die neuen substituierten Disiloxane finden Verwendung als Zytostatika und in der Chemotherapie - auch in Kombination mit anderen Mitteln. Es ist überraschend, dass sie eine starke Chemosensitation der resistenten Mdr-Tumorzellen verursachen und ihre Effluxpumpenaktivität unterdrücken. Dadurch lässt sich die intrazelluläre Chemotherapeutikum-Konzentration so hoch ansetzen, dass kein Unterschied mehr im Vergleich mit parentalen Zellen nachgewiesen werden kann. Die als ALIS-Verbindungen bezeichneten erfindungsgemäßen Substanzen sind dadurch gekennzeichnet, dass sie biologisch wirksam sind und die Effluxpumpenaktivität der malignen Mdr-Tumorzellen, Pgp-Resistenz von parasitären Zellen, Pilzen und Bakterien bereits im ng/ml-Konzentrationsbereich stark inhibieren. Auch in höheren Konzentration wirken sie in vivo nicht toxisch. Nach dem Zell-Substanz-Kontakt sind sie sofort wirksam. Die ALIS-Verbindungen sind dadurch gekennzeichnet, dass sie hauptsächlich die Wirksamkeit der Chemotherapie erhöhen, aber auch allein zytostatisch wirken. Die Toxizität der neuen Verbindungen wurde im Maussytem getestet. Das Ergebnis war überraschend gut. Trotz zehnfacher Überdosierung konnte der ID-50 Wert nicht ermittelt werden, da die Mäuse die Behandlung 100%-ig überlebt haben und kein Gewichtsverlust auftrat. In manchen Fällen bekamen die Mäuse scheinbar sogar mehr Appetit. Alle Ergebnisse weisen darauf hin, dass die erfindungsgemäß bereitgestellten Verbindungen zum Einsatz in der Chemotherapie von Tumoren bzw. von Infektionskrankheiten geeignet sind. […]

A short description of data set [3]: Water solubility (stated in heading).
Setting [4] is: L-5178Y Mdr Mauslymphomazellen, 10 min incubation.

Each structure is given as a SMILES string. Where a name gives a salt, the structure may show the parent alone.

`C[Si](CCCN1CCOCC1)(O[Si](C)(CCCN1CCOCC1)c1ccc(F)cc1)c1ccc(F)cc1` (centres unmarked) [ALIS-409, 1,3-Dimethyl-1,3-bis(4-fluorophenyl)-1,3-bis(3-morpholino-propyl)-disiloxan-dihydrochlorid]: the “Inhibition der Effluxpumpen” value in the data set on gp-170 Protein (40,0 ng/ml, L-5178Y Mdr Mauslymphomazellen, 10 min incubation, repeated independent experiments) is recorded as 20-45%. Also, in the data set with gp-170 Protein (setting [4]), the “100%-ige Hemmungsbereich (concentration range giving 100% inhibition of the efflux pump)” value lay within 300 to 800 ng/mL. Further, in the data set on gp-170 Protein (about 200,0 ng/ml, L-5178Y Mdr Mauslymphomazellen, 10 min incubation), the “Hemmung (Effluxpumpen)” value came out at 80%. Also, the “Einfluss auf die Mdr-Gen-Expression (Mdr RNA Synthese)” value in the data set on Mdr RNA Synthese is on record as “kein Einfluss”. In data set [1] (100 ng/ml, EPG85-257RDB, read-out: Proliferationshemmung), the inhibition at 0.1 µg/mL was 41%. In addition, in data set [1] (300 ng/ml, EPG85-257RDB, read-out: Proliferationshemmung), the inhibition at 0.3 µg/mL came out at 74%. For the same compound, in data set [2] (10,0 mg/kg), the Gewichtsverlust result is recorded as “ohne Gewichtsverlust”. For the same compound, the survival in data set [2] was 100%. Further, the Wasserlöslichkeit result in data set [3] is “sehr gut wasserlöslich”.
In the case of `CCCCN1CCN(CCC[Si](C)(O[Si](C)(CCCN2CCN(CCCC)CC2)c2ccc(F)cc2)c2ccc(F)cc2)CC1` (centres unmarked) [ALIS-421, 1,3-Dimethyl-1,3-bis(4-fluorophenyl)-1,3-bis{3-[1(4-butyl-piperazinyl)]-propyl}-disiloxan-tetrahydrochlorid], the “100%-ige Hemmungsbereich (concentration range giving 100% inhibition of the efflux pump)” value in the data set on gp-170 Protein (setting [4]) was in the range of 200 to 500 ng/mL. The “Inhibition der Effluxpumpenaktivität (in words)” value in the data set with gp-170 Protein (Mdr tumour cells, qualitative statement) is on record as “ähnlich groß”. Moreover, in the data set on Mdr RNA Synthese, the “Einfluss auf die Mdr-Gen-Expression (Mdr RNA Synthese)” value is listed as “keinen Einfluss”. Moreover, the “cancerostatischer Effekt allein” value in data set [1] (comparison in words) is reported as “schwächer als bei ALIS 409”. Besides, in data set [2] (10,0 mg/kg), the Gewichtsverlust result is listed as “ohne Gewichtsverlust” and the Toxizität result is “nicht toxisch”. In addition, in data set [2], the survival was found to be 100%. Moreover, the Wasserlöslichkeit entry in data set [3] is on record as “sehr gut wasserlöslich”.

Source of the values: patent EP1432717B1, “SUBSTITUTED DISILOXANES, METHOD FOR THE PRODUCTION THEREOF AND THE USE THEREOF FOR REVERSAL OF MULTIDRUG RESISTANCE (MDR)” (Molnar, Jozsef, priority 2000, dated 2002).
